Consider 4 molecules from EPA's ToxRefDB 2.

Data set [1] deals with mouse. Particulars: Subchronic oral toxicity in rodents, b6c3f1, Gavage/Intubation, dose end: 13 week, group: systemic.
The subject of data set [2] is mouse. The conditions noted are these: Carcinogenicity, b6c3f1, Oral, Gavage/Intubation, dose end: 2 year, group: systemic.
For data set [3], the system named is rat. The conditions noted are these: Subchronic oral toxicity in rodents, fischer, Gavage/Intubation, dose end: 13 week, group: systemic, systemic / in life observation / body weight / body weight.
The subject of data set [4] is dog. Particulars: Subchronic oral toxicity in nonrodent, beagle, Feed, dose end: 26 week, group: systemic, systemic / in life observation / clinical signs / chewing of extremities + systemic / in life observation / clinical signs / muscle ….
Data set [5] concerns rat. The conditions noted are these: Combined chronic toxicity/carcinogenicity, sprague dawley, Oral, Feed, dose end: 24 month, group: systemic.
The subject of data set [6] is rat. Particulars: Chronic toxicity, Sprague-Dawley, Oral, Feed, dose end: 104 week, group: systemic.
Data set [7] concerns mouse. The conditions noted are these: Combined chronic toxicity/carcinogenicity, other, Oral, Feed, dose end: 91 week, group: systemic.
Data set [8] relates to mouse. Particulars: Carcinogenicity; b6c3f1; Oral; Feed; dose end: 104 week; group: systemic; systemic / in life observation / body weight / body weight.
Data set [9] deals with rat. The conditions noted are these: Subchronic oral toxicity in rodents, fischer, Feed, dose end: 13 week, group: systemic.
Data set [10] relates to rat. The conditions noted are these: Carcinogenicity; fischer; Oral; Feed; dose end: 104 week; group: systemic; systemic / in life observation / body weight / body weight + systemic / pathology microscopic / kidney / cytomegaly + systemic / pathology ….
In data set [11] the test system is mouse. The conditions noted are these: Subchronic oral toxicity in rodents, b6c3f1, Feed, dose end: 13 week, group: systemic.
Data set [12] has as its system mouse. The conditions noted are these: Combined chronic toxicity/carcinogenicity, other, Oral, Feed, dose end: 80 week, group: systemic.
The test system of data set [13] is rat. The conditions noted are these: Combined chronic toxicity/carcinogenicity; wistar; Oral; Feed; dose end: 2 year; group: systemic; systemic / in life observation / body weight / body weight gain + systemic / in life observation / food consumption / food consumption + ….
The mark [14] stands for this setting: systemic / pathology microscopic / stomach / inflammation.
Setting [15] is: systemic / pathology microscopic / stomach / inflammation + systemic / in life observation / body weight / body weight + systemic / ….
[16] abbreviates: systemic / pathology microscopic / liver / vacuolization + systemic / pathology microscopic / thyroid gland / hyperplasia.
The mark [17] stands for this setting: systemic / pathology microscopic / liver / vacuolization + systemic / pathology microscopic / thyroid gland / hyperplasia + systemic / ….
[18] abbreviates: systemic / in life observation / body weight / body weight.
Where [19] appears, read: systemic / in life observation / body weight / body weight + systemic / clinical chemistry / alpha-2 globulin / alpha-2 globulin + systemic….
Setting [20] is: systemic / in life observation / body weight / body weight + systemic / organ weight / brain / relative to body weight + systemic / organ ….
Setting [21] is: systemic / pathology microscopic / liver / granuloma + systemic / pathology microscopic / lymph node / granuloma + systemic / clinical ….
[22] abbreviates: systemic / pathology microscopic / liver / granuloma + systemic / pathology microscopic / lymph node / granuloma + systemic / hematology / ….
Where [23] appears, read: systemic / in life observation / food consumption / food consumption.
Where [24] appears, read: systemic / in life observation / body weight / body weight + systemic / organ weight / kidney / relative to body weight + systemic / organ ….
The mark [25] stands for this setting: systemic / organ weight / liver / relative to body weight.

A value given as a limit tells only on which side of the number the result lay.

Consider `CCCCC(CC)COP(=O)(OCC(CC)CCCC)OCC(CC)CCCC` (configuration not stated) [Tris(2-ethylhexyl) phosphate], for which the LEL was determined as 500 mg/kg/day in data set [1] (setting [14]), 500 mg/kg/day in data set [2] (setting [16]) and 2000 mg/kg/day in [3]. For the same molecule, the NEL is below 500 mg/kg/day in data set [1] (setting [14]), below 500 mg/kg/day in data set [2] (setting [16]) and 1000 mg/kg/day in data set [3]. The LOAEL in [1] (setting [15]) was 8000 mg/kg/day; in [2] (setting [17]) it was above 1000 mg/kg/day; in data set [3] it was 2000 mg/kg/day. Moreover, the NOAEL is 4000 mg/kg/day in data set [1] (setting [15]), at least 1000 mg/kg/day in data set [2] (setting [17]) and 1000 mg/kg/day in data set [3].
As for `CC(C)[C@@H](C(=O)O[C@@H](C#N)c1cccc(Oc2ccccc2)c1)c1ccc(Cl)cc1` [Fenvalerate], the LEL in data set [4] worked out at 6.25 mg/kg/day; in data set [5] (setting [18]), 1.25 mg/kg/day; in [6] (setting [20]) it was 50 mg/kg/day; in [7] (setting [22]), 15 mg/kg/day. Further, the LOAEL is 6.25 mg/kg/day in [4], above 25 mg/kg/day in [5] (setting [19]), 50 mg/kg/day in [6] (setting [18]) and 15 mg/kg/day in data set [7] (setting [22]). The NEL is below 6.25 mg/kg/day in data set [4], 0.25 mg/kg/day in data set [5] (systemic / in life observation / body weight / body weight + systemic / clinical chemistry / alpha-2 globulin / alpha-2 globulin), below 50 mg/kg/day in data set [6] (setting [20]) and 4.5 mg/kg/day in data set [7] (setting [21]). Besides, the NOAEL in [4] is below 6.25 mg/kg/day; in data set [5] (setting [19]), at least 25 mg/kg/day; in data set [6] (setting [18]), below 50 mg/kg/day; in data set [7] (setting [21]) it was 4.5 mg/kg/day.
For the molecule `CN(C)C(=O)Nc1ccc(Cl)cc1` [Monuron], the LEL in data set [8] came out at 750 mg/kg/day; in data set [9] (setting [23]), 37.5 mg/kg/day; in data set [10], 37.5 mg/kg/day; in [11] (setting [18]), 450 mg/kg/day. In addition, the LOAEL amounted to 750 mg/kg/day in [8], 75 mg/kg/day in data set [9] (setting [18]), 75 mg/kg/day in data set [10] and 1800 mg/kg/day in data set [11] (setting [18]). The NEL in data set [8] was below 750 mg/kg/day; in data set [9] (setting [23]), below 37.5 mg/kg/day; in data set [10], below 37.5 mg/kg/day; in data set [11] (setting [18]), below 450 mg/kg/day. The NOAEL is below 750 mg/kg/day in [8], 37.5 mg/kg/day in [9] (systemic / in life observation / body weight / body weight + systemic / in life observation / food consumption / food consumption + systemic…), 37.5 mg/kg/day in data set [10] and 900 mg/kg/day in [11] (systemic / in life observation / body weight / body weight + systemic / in life observation / mortality / mortality + systemic / pathology …).
Turning to `C/C=C/C=C/C(=O)O` [Sorbic acid], in data set [12] (setting [24]), the LOAEL was above 15000 mg/kg/day and the NOAEL is at least 15000 mg/kg/day. Also, in data set [12] (setting [25]), the LEL amounted to 1500 mg/kg/day and the NEL is below 1500 mg/kg/day. Further, in data set [13], the LEL was found to be 5000 mg/kg/day, the LOAEL is above 5000 mg/kg/day, the NEL was 750 mg/kg/day and the NOAEL was at least 5000 mg/kg/day.
